# Data reported in PMC12040169 (PLOS Biology, 2025).
# Assay: in vitro
# Settings: human, hela cells, % viability
row,SMILES,"viability at 28.5 h, 10 µM [%]"
1,Cc1noc(C)c1C(=O)N1CCC2(CC1)CC(=O)c1ccc(OCc3ccccc3)c(C)c1O2 [CBK156506],97.4
2,O=C(NCCn1ccnc1)C1CC(=O)N(c2cccc(F)c2)C1 (stereo not drawn) [CBK281582],105
3,COC(=O)c1ccc(N2C(=O)CC(NCCc3ccc(S(N)(=O)=O)cc3)C2=O)cc1 (stereo not drawn) [CBK262859],99.9
4,O=C1/C(=C/c2ccc3c(c2)OCO3)SC(=S)N1CCCC(=O)N1CCCc2ccccc21 [CBK264676],98.2
5,CN(Cc1ccc(-c2ccc(S(C)(=O)=O)cc2)nc1)C1CCN(C(=O)CC(F)(F)F)CC1 [CBK164098T],99.3
6,O=C(COc1ccc2c(c1)OCO2)N1CCN(Cc2ccccc2)CC1 [CBK269977],84.8
7,Clc1ccc(CN2CCN(c3nccnc3OCc3cccnc3)CC2)cc1 [CBK083130T],99.6
8,CCN1CCCC1CNC(=O)C1(O)c2ccccc2NC(=O)N1c1ccccc1 (stereo not drawn) [CBK288554],90.5
9,O=C(Nc1cccc(C(F)(F)F)c1)N[C@H]1CO[C@H]2[C@@H]1OC[C@H]2O [CBK289476],102
10,Cn1c(NC(=O)c2ccccc2[N+](=O)[O-])cc(=O)n(C)c1=O [CBK294417],84
11,COCCC(=O)Nc1cccc(N2CCNCC2)c1 [CBK004769T],89.9
12,Cc1cc(O)cc(C2CCCN(C(=O)CC3CCCC3)C2)n1 (stereo not drawn) [CBK283422],107
13,COC(=O)CSc1nnc(CSc2cc(C)nc(N3CCOCC3)n2)o1 [CBK007059],96.1
14,Cc1cc(C)n(C(C(=O)NCCOc2ccc(F)cc2)C(C)C)n1 (stereo not drawn) [CBK281595],81.4
15,COc1cccc(CCC(=O)n2ccn(-c3ccc(N(C)C)cc3)c2=O)c1 [CBK106609],99
16,COc1cc(NC(=O)N(C)C2CCN(C)C2)cc(OC)c1OC (stereo not drawn) [CBK156022],101
17,Nc1ncc(-c2cccc(OC(F)(F)F)c2)nc1-c1ccc(F)c(Cl)c1 [CBK064021],113
18,OC(c1ccncc1)C(O)c1ccncc1 (stereo not drawn) [CBK024254],87.1
19,C/C(=N/OCC(=O)N/N=C/c1sc2ccccc2c1O)c1ccccc1 [CBK262266],96.3
20,O=C(c1ccc[nH]1)N1CCc2ccccc21 [CBK200285],72.6
21,O=C(OCCN1CCOCC1)c1ccccc1I [CBK033860],95.4
22,FC(F)(F)c1nc2ccccc2nc1SC1CCCCC1 [CBK107205],97.2
23,O=C(NCC1CC1)c1ccc(N2CCN(C(=O)c3ccccc3C(F)(F)F)CC2)nn1 [CBK153220],111

row,SMILES,"viability at 28.5 h, 10 µM [%]"
1,CCC1(C)CC(C(N)=S)CCO1 (stereo not drawn) [CBK008954],97
2,CC(C)c1ccc(OCC(=O)NCc2ccccn2)c(Br)c1 [CBK265910],99.2
3,O=S(=O)(Nc1ccc2nsnc2c1)c1cccc(C(F)(F)F)c1 [CBK062221],106
4,CC1CCN(Cc2ccc(-c3nnn(CC(=O)NCc4ccc(NS(C)(=O)=O)cc4)n3)cc2)CC1 [CBK144588C],90.3
5,CC(C)N1CCC(CNC(=O)c2cc3ccccc3c(=O)s2)CC1 [CBK282711],88.6
6,OC(COCc1ccccc1)CN1CCN(c2ccccc2F)CC1 (stereo not drawn) [CBK074851C],92.6
7,COc1ccc(-c2cc(C(=O)Nc3cnc4ccccc4c3)cnc2-c2cccc(C)c2)cn1 [CBK037425],89.8
8,O=C(N/N=C/c1ccc(-c2ccc([N+](=O)[O-])cc2)o1)c1cccnc1 [CBK262287],92.3
9,OC1(C(F)(F)F)C=C(c2cccs2)ON1 (stereo not drawn) [CBK006243],89
10,CC(C)(C)c1ccc(S(=O)(=O)N/N=C\c2ccc(Cl)cc2Cl)cc1 [CBK264759],84.6
11,N#Cc1cccc(Nc2cncc(-c3cccc(C(=O)NCCO)c3)n2)c1 [CBK037810],97.1
12,COc1ccc2c(c1)C1(CC(=O)N(CCOc3ccccc3)C1=O)C(=O)N2C (stereo not drawn) [CBK075168],95.2
13,CN(C(=O)c1ccc2c(c1)NC(=O)CS2)c1ccccc1 [CBK296612],105
14,CS(=O)(=O)c1ccccc1C(=O)n1ccn(-c2ccc(Oc3ccccc3)cc2)c1=O [CBK106647],80.8
15,Cn1ncc2ccc(-c3nnn[nH]3)cc21 [CBK304776],93
16,CCOC(=O)c1ccc(NC(=O)C2CC(=O)NC(Nc3nc4ccccc4s3)=N2)cc1 (stereo not drawn) [CBK264396],100
17,Cc1ccc2[nH]c(SCC(=O)NC3CCCC3)nc2c1 [CBK057983],90
18,COc1ccc(C(=O)NNC(=O)/C=C/c2ccc(C(C)C)cc2)cc1 [CBK261697],101
19,O=C(C1CCCO1)N1CCC(c2onc3c2CCCCC3)CC1 (stereo not drawn) [CBK284487],98.4
20,C#CCn1nnc2ccccc21 [CBK028164],104
21,CCOc1ccsc1C(=O)Nc1cc2ccccc2c(N2CCNCC2)n1 [CBK036341T],99.3
22,O=C(NCCCO)c1c(O)c2ccccc2[nH]c1=O [CBK018215],71.7
23,Cc1cc(O)ccc1-c1cncc(-c2ccc(O)cc2C)n1 [CBK115689],90.5

row,SMILES,"viability at 28.5 h, 10 µM [%]"
1,O=C(C1=C(O)C(=O)N(CCN2CCOCC2)C1c1ccco1)c1cccs1 (stereo not drawn) [CBK264506],96
2,O=C(Nc1cccc(-c2nnco2)c1)C1CCCCC1 [CBK296662],86.2
3,O=C(c1cccs1)N1CCC(c2onc3c2CCCC3)CC1 [CBK285181],93.3
4,O=C(Nc1cccc(N2CCCC2)c1)c1cc(C2CC2)on1 [CBK283139],87.7
5,CC(=O)Nc1cccc(-n2nnnc2SCC(=O)N2CCNC2=O)c1 [CBK305043],88.5
6,O=C(CN1C(=O)N2CCN=C2c2ccccc21)N1CCCC1 [CBK283945],91.9
7,Cc1c(NC(=O)CSc2nnc(-c3ccc4ccccc4n3)s2)c(=O)n(-c2ccccc2)n1C [CBK269341],92.7
8,CC(C)(C)SCCNC(=S)NCCO [CBK020686],98.7
9,CC1CCc2nc(NC(=O)Cn3cc(C(=O)Nc4ccc(F)cc4)ccc3=O)sc2C1 (stereo not drawn) [CBK286053],100
10,CCc1cccc(C)c1NC(=O)CN(c1ccc(Br)c(C)c1)S(C)(=O)=O [CBK267935],102
11,CC(C)Nc1nc2cc(Cl)c(Cl)cc2nc1OCCCN(C)C [CBK115282],93.1
12,COc1ccc(Nc2ccc(-c3ccc4c(c3)OCO4)cn2)c(C)c1 [CBK036799],102
13,Cc1cc(NC(=O)C2CCCC2)nc2c1c(=O)oc1ccccc12 [CBK287438],93.2
14,Cc1ccc(-c2ccn(C(C)C(=O)N(C)C)n2)cc1 (stereo not drawn) [CBK016069],98.4
15,Cc1ccc(S(=O)(=O)N2CCCN(CC(O)c3ccccc3)CC2)cc1 (stereo not drawn) [CBK297911],104
16,NNS(=O)(=O)c1ccc(Oc2ccc([N+](=O)[O-])cc2)cc1 [CBK261669],95.9
17,O=c1[nH]cnc2c1nc(S)n2C1OC(CO)C(O)C1O (stereo not drawn) [CBK218834],96.4
18,O=C(COc1ccc(S(=O)(=O)N2CCCCC2)cc1)NCc1ccccn1 [CBK268517],91.6
19,O=C(NCc1ccco1)c1c(NC(=O)C2CCCO2)sc2c1CCC2 (stereo not drawn) [CBK268180],94.4
20,Cc1cc(C)n(C2CN(C(=O)NCCCOc3cccnc3)C2)n1 [CBK307632],84.1
21,O=C(C[S+]([O-])c1ccc(C(F)(F)F)cc1[N+](=O)[O-])Oc1cccc2cccnc12 (stereo not drawn) [CBK266716],91.6
22,O=C(c1cc2c(F)cccc2[nH]1)N1CCCCC1CCN1CCCC1 (stereo not drawn) [CBK281612],85.7
23,COc1ccccc1Cn1ncc2c1CCCC2NC(=O)C1CCC1 (stereo not drawn) [CBK282895],110

row,SMILES,"viability at 28.5 h, 10 µM [%]"
1,CCN1C(=O)S/C(=C/c2ccc(OCc3cccc(C(=O)O)c3)cc2)C1=O [CBK265605],106
2,COc1ccc2[nH]cc(CCNC(=O)CCCN(C)C)c2c1 [CBK116202],96.4
3,CN(C)S(=O)(=O)N(CC(=O)Nc1cccnc1)c1ccccc1 [CBK267958],119
4,Cc1ccc(C2(O)CCN(CCNC(=O)C3CC3C)CC2)cc1 (stereo not drawn) [CBK282607],83.9
5,Fc1ccc(-c2noc(C3CCN(CCc4ccccc4)CC3)n2)cc1 [CBK051457],91.3
6,O=[N+]([O-])c1ccccc1/C=N/Nc1nnn[nH]1 [CBK260971],106
7,N#Cc1ccc(-c2cnc(N)c(-c3ccccc3Cl)n2)cc1 [CBK113660],88.5
8,COc1cc(CNc2cc(-c3ccco3)ncn2)cc(OC)c1OC [CBK091181],106
9,O=C(NCc1ccncc1)Nc1ccc([N+](=O)[O-])cc1 [CBK264319],110
10,CCn1cc(C(=O)N2C[C@H](C(=O)OC)[C@@H](c3ccccc3F)C2)cn1 [CBK283510],94.2
11,O=C(C1=C(O)C(=O)N(CCCN2CCOCC2)C1c1cccnc1)c1cccs1 (stereo not drawn) [CBK264555],113
12,Nc1ncc(-c2ccc(C(F)(F)F)cc2)c(C2CCCN(C(=O)c3ccccc3)C2)n1 (stereo not drawn) [CBK285790],89.2
13,O=C(N[C@H]1CO[C@H]2[C@@H]1OC[C@@H]2Nc1nccc(-c2cccs2)n1)c1ccccc1 [CBK289516],84.5
14,Nc1nonc1OCCCCOc1nonc1N [CBK027716],110
15,CS(=O)(=O)c1ccccc1C(=O)n1ccn(-c2cccc(C(F)(F)F)c2)c1=O [CBK106584],91.1
16,COc1cc(-c2cnc(N)c(N3CCC(C(=O)O)CC3)n2)cc(OC)c1OC [CBK063365],98.9
17,Cc1ccc(CNC(=O)Cn2cc(-c3ccc(CN4CCC(C)CC4)cc3)nn2)cc1 [CBK164706],87.1
18,CC(NC(=O)c1cc2ccc(N(C)C)cc2[nH]1)c1ccccn1 (stereo not drawn) [CBK281821],80.6
19,Cc1cc(Br)ccc1NC(=O)CSc1nnc(-c2ccccc2O)n1-c1ccccc1 [CBK268086],90.7
20,Cn1c(CCC(=O)Nc2c[nH]c3ccccc23)nc2ccccc21 [CBK282507],85.9
21,CCOc1ccc(Nc2ncnc3c2cnn3Cc2ccccc2)cc1 [CBK072752],97.8
